Patent publication US8952024B2, “Herbicidal pyrimidone derivatives” (E I du Pont de Nemours and Company, priority 2009, dated 2015)

Test system: Italian ryegrass (Lolium multiflorum)
Assay: Test B pre-/postemergence plant response
Format: in vivo
Settings: Postemergence, 31 g ai/ha; 0 to 100 scale (0 no effect, 100 complete control)
Summary of the method: (§1)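 Seeds sown in loam–sand blend were treated preemergence, and plants at 2–18 cm (1- to 4-leaf stage) in peat-based medium were treated postemergence; compounds were formulated in non-phytotoxic solvent with surfactant. After 13–15 days in greenhouse, response was visually rated against controls, 0 (no effect) to 100 (complete control).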

**Q.** Which “Plant response rating, Ryegrass, Italian” value does the source give for `Cc1ccc(Cl)cc1-n1c(-c2cccc(F)c2)ncc(C(=O)C2=C(O)CCCC2=O)c1=O` [Compound 184] here?
**A.** 20

Same assay, conditions: Postemergence, 125 g ai/ha; scale 0 to 100 (0 no effect, 100 complete control)

**Q.** `Cc1ccc(Cl)cc1-n1c(-c2cccc(F)c2)ncc(C(=O)C2=C(O)CCCC2=O)c1=O` [Compound 184] was tested. Which “Plant response rating, Ryegrass, Italian” value did it give?
**A.** 45

Same assay, conditions: Postemergence, 250 g ai/ha; scale 0 to 100 (0 no effect, 100 complete control); 13 to 15 days

**Q.** Which “Plant response rating, Ryegrass, Italian” value does the source give for `Cc1ccc(Cl)cc1-n1c(-c2cccc(F)c2)ncc(C(=O)C2=C(O)CCCC2=O)c1=O` [Compound 184] here?
**A.** 60

Test system: bermudagrass (Cynodon dactylon)
Assay: Test B pre-/postemergence plant response
Format: in vivo
Settings: 62 g ai/ha, postemergence; 0 is no effect, 100 is complete control; 13 to 15 days
Summary of the method: as §1

**Q.** With `Cc1ccc(Cl)cc1-n1c(-c2cccc(F)c2)ncc(C(=O)C2=C(O)CCCC2=O)c1=O` [Compound 184] as the molecule, how does the “Bermudagrass plant response rating (0 to 100 scale)” value read?
**A.** 100

Same assay, conditions: Postemergence, 31 g ai/ha; 0 to 100 scale (0 no effect, 100 complete control)

**Q.** For `Cc1ccc(Cl)cc1-n1c(-c2cccc(F)c2)ncc(C(=O)C2=C(O)CCCC2=O)c1=O` [Compound 184], which “Plant response rating, Bermudagrass” value is on record?
**A.** 98

Same assay, conditions: Postemergence, 125 g ai/ha; scale 0 to 100 (0 no effect, 100 complete control)

**Q.** For `Cc1ccc(Cl)cc1-n1c(-c2cccc(F)c2)ncc(C(=O)C2=C(O)CCCC2=O)c1=O` [Compound 184], which “Plant response rating, Bermudagrass” value is on record?
**A.** 100

Same assay, conditions: Postemergence, 250 g ai/ha; scale 0 to 100 (0 no effect, 100 complete control); 13 to 15 days

**Q.** How did the “Plant response rating, Bermudagrass” value turn out when `Cc1ccc(Cl)cc1-n1c(-c2cccc(F)c2)ncc(C(=O)C2=C(O)CCCC2=O)c1=O` [Compound 184] was run?
**A.** 100

Test system: corn (Zea mays)
Assay: Test B pre-/postemergence plant response
Format: in vivo
Settings: Postemergence, 31 g ai/ha; 0 to 100 scale (0 no effect, 100 complete control)
Summary of the method: as §1

**Q.** `Cc1ccc(Cl)cc1-n1c(-c2cccc(F)c2)ncc(C(=O)C2=C(O)CCCC2=O)c1=O` [Compound 184] was tested. Which “Plant response rating, Corn” value did it give?
**A.** 80

Same assay, conditions: Postemergence, 125 g ai/ha; scale 0 to 100 (0 no effect, 100 complete control)

**Q.** How did the “Plant response rating, Corn” value turn out when `Cc1ccc(Cl)cc1-n1c(-c2cccc(F)c2)ncc(C(=O)C2=C(O)CCCC2=O)c1=O` [Compound 184] was run?
**A.** 85

Same assay, conditions: Postemergence, 250 g ai/ha; scale 0 to 100 (0 no effect, 100 complete control); 13 to 15 days

**Q.** `Cc1ccc(Cl)cc1-n1c(-c2cccc(F)c2)ncc(C(=O)C2=C(O)CCCC2=O)c1=O` [Compound 184] was tested. Which “Plant response rating, Corn” value did it give?
**A.** 98

Test system: downy bromegrass (Bromus tectorum)
Assay: Test B pre-/postemergence plant response
Format: in vivo
Settings: 62 g ai/ha, postemergence; 0 is no effect, 100 is complete control; 13 to 15 days
Summary of the method: as §1

**Q.** `Cc1ccc(Cl)cc1-n1c(-c2cccc(F)c2)ncc(C(=O)C2=C(O)CCCC2=O)c1=O` [Compound 184] was tested. Which “Bromegrass, Downy plant response rating (0 to 100 scale)” value did it give?
**A.** 50

Same assay, conditions: Postemergence, 31 g ai/ha; 0 to 100 scale (0 no effect, 100 complete control)

**Q.** How did the “Plant response rating, Bromegrass, Downy” value turn out when `Cc1ccc(Cl)cc1-n1c(-c2cccc(F)c2)ncc(C(=O)C2=C(O)CCCC2=O)c1=O` [Compound 184] was run?
**A.** 40

Same assay, conditions: Postemergence, 125 g ai/ha; scale 0 to 100 (0 no effect, 100 complete control)

**Q.** With `Cc1ccc(Cl)cc1-n1c(-c2cccc(F)c2)ncc(C(=O)C2=C(O)CCCC2=O)c1=O` [Compound 184] as the molecule, how does the “Plant response rating, Bromegrass, Downy” value read?
**A.** 50

Same assay, conditions: Postemergence, 250 g ai/ha; scale 0 to 100 (0 no effect, 100 complete control); 13 to 15 days

**Q.** Which “Plant response rating, Bromegrass, Downy” value does the source give for `Cc1ccc(Cl)cc1-n1c(-c2cccc(F)c2)ncc(C(=O)C2=C(O)CCCC2=O)c1=O` [Compound 184] here?
**A.** 60

Test system: giant foxtail (Setaria faberii)
Assay: Test B pre-/postemergence plant response
Format: in vivo
Settings: Postemergence, 31 g ai/ha; 0 to 100 scale (0 no effect, 100 complete control)
Summary of the method: as §1

**Q.** How did the “Plant response rating, Foxtail, Giant” value turn out when `Cc1ccc(Cl)cc1-n1c(-c2cccc(F)c2)ncc(C(=O)C2=C(O)CCCC2=O)c1=O` [Compound 184] was run?
**A.** 98

Same assay, conditions: Postemergence, 125 g ai/ha; scale 0 to 100 (0 no effect, 100 complete control)

**Q.** Which “Plant response rating, Foxtail, Giant” value does the source give for `Cc1ccc(Cl)cc1-n1c(-c2cccc(F)c2)ncc(C(=O)C2=C(O)CCCC2=O)c1=O` [Compound 184] here?
**A.** 100

Same assay, conditions: Postemergence, 250 g ai/ha; scale 0 to 100 (0 no effect, 100 complete control); 13 to 15 days

**Q.** Which “Plant response rating, Foxtail, Giant” value does the source give for `Cc1ccc(Cl)cc1-n1c(-c2cccc(F)c2)ncc(C(=O)C2=C(O)CCCC2=O)c1=O` [Compound 184] here?
**A.** 100

Test system: goosegrass (Eleusine indica)
Assay: Test B pre-/postemergence plant response
Format: in vivo
Settings: Postemergence, 31 g ai/ha; 0 to 100 scale (0 no effect, 100 complete control)
Summary of the method: as §1

**Q.** `Cc1ccc(Cl)cc1-n1c(-c2cccc(F)c2)ncc(C(=O)C2=C(O)CCCC2=O)c1=O` [Compound 184] was tested. Which “Plant response rating, Goosegrass” value did it give?
**A.** 100

Same assay, conditions: Postemergence, 125 g ai/ha; scale 0 to 100 (0 no effect, 100 complete control)

**Q.** `Cc1ccc(Cl)cc1-n1c(-c2cccc(F)c2)ncc(C(=O)C2=C(O)CCCC2=O)c1=O` [Compound 184] was tested. Which “Plant response rating, Goosegrass” value did it give?
**A.** 100

Same assay, conditions: Postemergence, 250 g ai/ha; scale 0 to 100 (0 no effect, 100 complete control); 13 to 15 days

**Q.** How did the “Plant response rating, Goosegrass” value turn out when `Cc1ccc(Cl)cc1-n1c(-c2cccc(F)c2)ncc(C(=O)C2=C(O)CCCC2=O)c1=O` [Compound 184] was run?
**A.** 100

Test system: green foxtail (Setaria viridis)
Assay: Test B pre-/postemergence plant response
Format: in vivo
Settings: Postemergence, 31 g ai/ha; 0 to 100 scale (0 no effect, 100 complete control)
Summary of the method: as §1

**Q.** With `Cc1ccc(Cl)cc1-n1c(-c2cccc(F)c2)ncc(C(=O)C2=C(O)CCCC2=O)c1=O` [Compound 184] as the molecule, how does the “Plant response rating, Foxtail, Green” value read?
**A.** 30

Same assay, conditions: Postemergence, 125 g ai/ha; scale 0 to 100 (0 no effect, 100 complete control)

**Q.** `Cc1ccc(Cl)cc1-n1c(-c2cccc(F)c2)ncc(C(=O)C2=C(O)CCCC2=O)c1=O` [Compound 184] was tested. Which “Plant response rating, Foxtail, Green” value did it give?
**A.** 85

Same assay, conditions: Postemergence, 250 g ai/ha; scale 0 to 100 (0 no effect, 100 complete control); 13 to 15 days

**Q.** For `Cc1ccc(Cl)cc1-n1c(-c2cccc(F)c2)ncc(C(=O)C2=C(O)CCCC2=O)c1=O` [Compound 184], which “Plant response rating, Foxtail, Green” value is on record?
**A.** 98

Test system: johnsongrass (Sorghum halepense)
Assay: Test B pre-/postemergence plant response
Format: in vivo
Settings: Postemergence, 31 g ai/ha; 0 to 100 scale (0 no effect, 100 complete control)
Summary of the method: as §1

**Q.** For `Cc1ccc(Cl)cc1-n1c(-c2cccc(F)c2)ncc(C(=O)C2=C(O)CCCC2=O)c1=O` [Compound 184], which “Plant response rating, Johnsongrass” value is on record?
**A.** 100

Same assay, conditions: Postemergence, 125 g ai/ha; scale 0 to 100 (0 no effect, 100 complete control)

**Q.** How did the “Plant response rating, Johnsongrass” value turn out when `Cc1ccc(Cl)cc1-n1c(-c2cccc(F)c2)ncc(C(=O)C2=C(O)CCCC2=O)c1=O` [Compound 184] was run?
**A.** 100

Same assay, conditions: Postemergence, 250 g ai/ha; scale 0 to 100 (0 no effect, 100 complete control); 13 to 15 days

**Q.** Which “Plant response rating, Johnsongrass” value does the source give for `Cc1ccc(Cl)cc1-n1c(-c2cccc(F)c2)ncc(C(=O)C2=C(O)CCCC2=O)c1=O` [Compound 184] here?
**A.** 100

Test system: large crabgrass (Digitaria sanguinalis)
Assay: Test B pre-/postemergence plant response
Format: in vivo
Settings: Postemergence, 31 g ai/ha; 0 to 100 scale (0 no effect, 100 complete control)
Summary of the method: as §1

**Q.** How did the “Plant response rating, Crabgrass, Large” value turn out when `Cc1ccc(Cl)cc1-n1c(-c2cccc(F)c2)ncc(C(=O)C2=C(O)CCCC2=O)c1=O` [Compound 184] was run?
**A.** 100

Same assay, conditions: Postemergence, 125 g ai/ha; scale 0 to 100 (0 no effect, 100 complete control)

**Q.** How did the “Plant response rating, Crabgrass, Large” value turn out when `Cc1ccc(Cl)cc1-n1c(-c2cccc(F)c2)ncc(C(=O)C2=C(O)CCCC2=O)c1=O` [Compound 184] was run?
**A.** 100

Same assay, conditions: Postemergence, 250 g ai/ha; scale 0 to 100 (0 no effect, 100 complete control); 13 to 15 days

**Q.** For `Cc1ccc(Cl)cc1-n1c(-c2cccc(F)c2)ncc(C(=O)C2=C(O)CCCC2=O)c1=O` [Compound 184], which “Plant response rating, Crabgrass, Large” value is on record?
**A.** 100

Test system: morningglory (Ipomoea coccinea)
Assay: Test B pre-/postemergence plant response
Format: in vivo
Settings: Postemergence, 31 g ai/ha; 0 to 100 scale (0 no effect, 100 complete control)
Summary of the method: as §1

**Q.** `Cc1ccc(Cl)cc1-n1c(-c2cccc(F)c2)ncc(C(=O)C2=C(O)CCCC2=O)c1=O` [Compound 184] was tested. Which “Plant response rating, Morningglory” value did it give?
**A.** 40

Same assay, conditions: Postemergence, 125 g ai/ha; scale 0 to 100 (0 no effect, 100 complete control)

**Q.** `Cc1ccc(Cl)cc1-n1c(-c2cccc(F)c2)ncc(C(=O)C2=C(O)CCCC2=O)c1=O` [Compound 184] was tested. Which “Plant response rating, Morningglory” value did it give?
**A.** 100

Same assay, conditions: Postemergence, 250 g ai/ha; scale 0 to 100 (0 no effect, 100 complete control); 13 to 15 days

**Q.** Which “Plant response rating, Morningglory” value does the source give for `Cc1ccc(Cl)cc1-n1c(-c2cccc(F)c2)ncc(C(=O)C2=C(O)CCCC2=O)c1=O` [Compound 184] here?
**A.** 100

Test system: woolly cupgrass (Eriochloa villosa)
Assay: Test B pre-/postemergence plant response
Format: in vivo
Settings: Postemergence, 31 g ai/ha; 0 to 100 scale (0 no effect, 100 complete control)
Summary of the method: as §1

**Q.** Which “Plant response rating, Cupgrass, Woolly” value does the source give for `Cc1ccc(Cl)cc1-n1c(-c2cccc(F)c2)ncc(C(=O)C2=C(O)CCCC2=O)c1=O` [Compound 184] here?
**A.** 75

Same assay, conditions: Postemergence, 125 g ai/ha; scale 0 to 100 (0 no effect, 100 complete control)

**Q.** With `Cc1ccc(Cl)cc1-n1c(-c2cccc(F)c2)ncc(C(=O)C2=C(O)CCCC2=O)c1=O` [Compound 184] as the molecule, how does the “Plant response rating, Cupgrass, Woolly” value read?
**A.** 100

Same assay, conditions: Postemergence, 250 g ai/ha; scale 0 to 100 (0 no effect, 100 complete control); 13 to 15 days

**Q.** How did the “Plant response rating, Cupgrass, Woolly” value turn out when `Cc1ccc(Cl)cc1-n1c(-c2cccc(F)c2)ncc(C(=O)C2=C(O)CCCC2=O)c1=O` [Compound 184] was run?
**A.** 100

Test system: yellow nutsedge (Cyperus esculentus)
Assay: Test B pre-/postemergence plant response
Format: in vivo
Settings: Postemergence, 31 g ai/ha; 0 to 100 scale (0 no effect, 100 complete control)
Summary of the method: as §1

**Q.** With `Cc1ccc(Cl)cc1-n1c(-c2cccc(F)c2)ncc(C(=O)C2=C(O)CCCC2=O)c1=O` [Compound 184] as the molecule, how does the “Plant response rating, Nutsedge, Yellow” value read?
**A.** 35

Same assay, conditions: Postemergence, 125 g ai/ha; scale 0 to 100 (0 no effect, 100 complete control)

**Q.** How did the “Plant response rating, Nutsedge, Yellow” value turn out when `Cc1ccc(Cl)cc1-n1c(-c2cccc(F)c2)ncc(C(=O)C2=C(O)CCCC2=O)c1=O` [Compound 184] was run?
**A.** 45

Same assay, conditions: Postemergence, 250 g ai/ha; scale 0 to 100 (0 no effect, 100 complete control); 13 to 15 days

**Q.** How did the “Plant response rating, Nutsedge, Yellow” value turn out when `Cc1ccc(Cl)cc1-n1c(-c2cccc(F)c2)ncc(C(=O)C2=C(O)CCCC2=O)c1=O` [Compound 184] was run?
**A.** 75
